Tests used:
Type in all cases: cell-based
Pseudomonas aeruginosa = assay: Agar plate disc-diffusion, antibacterial inhibition zone; conditions: nutrient agar, 37° C., 48 h, DMSO control zone subtracted
Experimental: (§1) The agar plate disc-diffusion method was applied. […] The discs were then placed onto the surface of agar plates (nutrient agar for bacteria and Sabouraud's dextrose agar for fungi) seeded with the test organism. Each plate contained 15 mL of the agar medium, previously seeded with 0.2 mL of the broth culture of each organism pregrown for 18 h. The plates were incubated at 37° C. for 48 h, and 72 h for fungi. The inhibition zones was measured in mm. Discs impregnated with DMSO were used as a control, and its inhibition zone was subtracted from the tested compound actual inhibition zone.

Escherichia coli = assay: as above; conditions: nutrient agar, 37° C., 48 h, DMSO control zone subtracted
Experimental: as §1

Staphylococcus aureus = assay: as above; conditions: nutrient agar, 37° C., 48 h, DMSO control zone subtracted
Experimental: as §1

Bacillus cereus = assay: as above; conditions: nutrient agar, 37° C., 48 h, DMSO control zone subtracted
Experimental: as §1

Aspergillus flavus = assay: Agar plate disc-diffusion, antifungal inhibition zone; conditions: Sabouraud's dextrose agar, 37° C., 72 h, DMSO control zone subtracted
Experimental: as §1

[1] = system: Chrysosporium keratinophilum; assay: as above; conditions: Sabouraud's dextrose agar, 37° C., 72 h, DMSO control zone subtracted
Experimental: as §1

[2] = A = concentration of comp. = 10,000 μL
[3] = B = concentration of comp. = 30,000 μL
[4] = C = concentration of comp. = 50,000 μL

## O=C(O)CSc1nnc(-c2cccc(F)c2)n1-c1ccccc1 [III, 2-(5-(3-fluorophenyl)-4-phenyl-4H-1,2,4-triazol-3-ylthio)acetic acid]
Pseudomonas aeruginosa; [2]
  inhibition zone, Pseudomonas aeruginosa, A: 25 mm
Pseudomonas aeruginosa; [3]
  inhibition zone, Pseudomonas aeruginosa, B: 27 mm
Pseudomonas aeruginosa; [4]
  inhibition zone, Pseudomonas aeruginosa, C: 46 mm
Escherichia coli; A =
  inhibition zone, Escherichia coli, A: 22 mm
Escherichia coli; [3]
  inhibition zone, Escherichia coli, B: 30 mm
Escherichia coli; [4]
  inhibition zone, Escherichia coli, C: 49 mm
Staphylococcus aureus; [2]
  inhibition zone, Staphylococcus aureus, A: 15 mm
Staphylococcus aureus; [3]
  inhibition zone, Staphylococcus aureus, B: 20 mm
Staphylococcus aureus; [4]
  inhibition zone, Staphylococcus aureus, C: 24 mm
Bacillus cereus; [2]
  inhibition zone, Bacillus Cereus, A: 23 mm
Bacillus cereus; [3]
  inhibition zone, Bacillus Cereus, B: 27 mm
Bacillus cereus; [4]
  inhibition zone, Bacillus Cereus, C: 40 mm
Aspergillus flavus; [2]
  inhibition zone, Aspergillus flavus, A: 20 mm
Aspergillus flavus; [3]
  inhibition zone, Aspergillus flavus, B: 27 mm
Aspergillus flavus; [4]
  inhibition zone, Aspergillus flavus, C: 36 mm
[1]; [2]
  inhibition zone, Chrysosporium keratinophilum, A: 24 mm
[1]; [3]
  inhibition zone, Chrysosporium keratinophilum, B: 27 mm
[1]; [4]
  inhibition zone, Chrysosporium keratinophilum, C: 44 mm
